Measured values published in PMC2653417 (Bioorganic & medicinal chemistry letters, 2008).

Tests used:
Hsp90 [1] = molecular target: T1, Hsp90 (Homo sapiens, UniProt P07900); settings: cited from earlier work
Hsp90 [2] = molecular target: T1, Hsp90; settings: cited from earlier work; remark: listed apart in the source
Raf-1 = assay: Western blot assay, client protein degradation; format: cell-based
PRAS40 = assay: Western blot assay, client protein degradation; format: cell-based
[3] = read-out: IC50 cell growth inhibition; cited from earlier work
[4] = tested on: HER2 over-expressing SKBr3 breast cancer cells; assay: cell growth inhibition assay; format: cell-based; settings: Homo sapiens, SK-BR-3, 72 h, read-out: IC50 SKBr3
Hsp90 [5] = molecular target: T1, Hsp90; assay: fluorescent polarization

## O=S(=O)(Nc1ccc(O)c(-c2c(O)ccc3ccccc23)c1)c1ccccc1 [Compound 1]
Hsp90 [1]
  activity in FP assay: low micromolar activity
Hsp90 [2]
  activity in malachite green assay: low micromolar activity

## O=S(=O)(Nc1ccc(O)c(-c2c(O)ccc3ccccc23)c1)c1cc(Cl)ccc1Cl [Compound 2]
Raf-1
  effect on Raf-1 degradation: neither had any effect
PRAS40
  effect on PRAS40 degradation: neither had any effect
[3]
  IC50: 29 µM
[4]
  IC50: 6.5 µM

## O=S(=O)(Nc1ccc(O)c(-c2ccccc2O)c1)c1cc(Cl)ccc1Cl [Compound 9a]
Hsp90 [5]; relative to compound 2
  fold less activity than 2 in FP assay: about 20 fold

## COc1ccc(O)c(O)c1-c1cc(NS(=O)(=O)c2cc(Cl)ccc2Cl)ccc1N [Compound 13]
Hsp90 [5]; mean of 2 independent determinations, maximum concentration tested 50 µM
  IC50 FP: sub-micromolar
Raf-1
  effect on Raf-1 degradation: neither had any effect
PRAS40
  effect on PRAS40 degradation: neither had any effect
[4]
  IC50: 6 µM

## O=S(=O)(Nc1ccc(O)c(-c2c(O)ccc3c2OCO3)c1)c1cc(Cl)ccc1Cl [Compound 17]
[4]
  IC50: 4.4 µM
